Measured values published in PMC6920801, “Conformation and Aggregation of Human Serum Albumin in the Presence of Green Tea Polyphenol (EGCg) and/or Palmitic Acid” (Biomolecules, 2019).

Target: T1, Human serum albumin (HSA) (Homo sapiens, UniProt P02768)
T1 construct: gene ALB; fatty acid-free albumin from human serum; CPM-labelled at Cys-34 for FRET
Test: FRET (Trp-214 to CPM-Cys-34) titration with one-site fit; Trp fluorescence quenching, CD, DLS
Assay type: binding
Description: FRET (Trp-214 to CPM-Cys-34) titration with one-site fit; Trp fluorescence quenching, CD, DLS on Human serum albumin (HSA) | The effect was dose dependent and fit a one binding site isotherm, with a calculated maximum change in distance

T1 sequence (P02768 25-609): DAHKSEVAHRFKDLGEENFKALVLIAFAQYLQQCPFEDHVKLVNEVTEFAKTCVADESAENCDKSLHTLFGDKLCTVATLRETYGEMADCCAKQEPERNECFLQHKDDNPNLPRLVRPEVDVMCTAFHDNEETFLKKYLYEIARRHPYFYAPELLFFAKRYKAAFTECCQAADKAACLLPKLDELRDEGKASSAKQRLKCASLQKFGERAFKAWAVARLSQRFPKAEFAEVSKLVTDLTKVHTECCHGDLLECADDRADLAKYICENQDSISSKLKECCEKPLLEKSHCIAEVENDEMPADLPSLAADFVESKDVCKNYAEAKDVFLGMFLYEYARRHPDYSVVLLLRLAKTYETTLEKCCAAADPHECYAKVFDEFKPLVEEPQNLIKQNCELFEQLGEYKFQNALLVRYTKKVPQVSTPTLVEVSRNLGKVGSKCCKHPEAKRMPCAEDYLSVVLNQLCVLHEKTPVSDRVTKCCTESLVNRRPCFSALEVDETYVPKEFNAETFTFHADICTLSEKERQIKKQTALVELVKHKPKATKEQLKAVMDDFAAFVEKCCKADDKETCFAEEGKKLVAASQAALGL

`O=C(O[C@@H]1Cc2c(O)cc(O)cc2O[C@@H]1c1cc(O)c(O)c(O)c1)c1cc(O)c(O)c(O)c1` [EGCg, (-)-epigallocatechin gallate] was tested. Which EC50 did it give?
The EC50 was 3.7 µM.
